# Tested on: Plasmodium falciparum
# Test: GSK_TCMDC: Inhibition of Plasmodium falciparum 3D7 in whole erythrocytes, using parasite LDH activity as an index of growth.
# Type: functional, organism-based
# Details: Plasmodium falciparum, 3D7
row,SMILES,XC50 [nM]
1,O=[N+]([O-])c1cc(/C=N/Nc2nc3nonc3nc2Nc2ccc(F)cc2)c(Cl)cc1Cl,759
2,Cc1cc(F)ccc1[C@H]1CNCCN1C(=O)N(C)[C@@H](C)c1cc(C(F)(F)F)cc(C(F)(F)F)c1,232
3,Cc1cccc2nc(-c3ccc(-c4cccc(CN5CCCC(O)C5)c4)s3)[nH]c12 (stereo not drawn),942
4,N#Cc1ccc(-n2cc(C(=O)Nc3ccc4c(c3)CCN(C3CCC3)CC4)c(C(F)(F)F)n2)cc1,290
5,Cc1cc(Nc2ncc3c(n2)N(C2CCC2)CC3)ccc1N1CCN(C)CC1,1190
6,COc1cc(/C=C/C(=O)NCC(CCNc2cc(=O)c3ccccc3[nH]2)NCc2cc(Br)cc(Br)c2)cc(OC)c1 (stereo not drawn),915
7,Cc1ccc(NC(=O)NC2CCN(c3ccnc4ccccc34)C2)cc1 (stereo not drawn),709
8,COc1ccc(-c2nc(NC(=O)CS(=O)(=O)c3ccc(F)cc3)sc2C)cc1,243
9,COc1cccc(CC(=O)N2CCC(n3c(C)nc4ccc(C)cc43)CC2)c1,114
10,CC1(C)CCCN(C(=O)Cc2ccc3c(c2)CCCC3)C1CN1CC=CC1 (stereo not drawn),720
11,Cc1cc(=O)c(-c2ccc(OCCSc3ccc(C(F)(F)F)cn3)cc2)c(C)[nH]1,527
12,Nc1ncc(-c2cn[nH]c2)cc1-c1nc2cc(Cl)cnc2[nH]1,915
13,Cc1cc(=NN=Cc2ccccn2)c2cc(F)ccc2[nH]1,761
14,Cc1oc(-c2ccc(Cl)cc2)cc1C(=O)NCCC1CCN(CCCCCNC(=O)/C=C/c2ccc(Cl)c(Cl)c2)CC1,446
15,Cn1nccc1C(=O)NCCNCc1cccc(-c2csc(-c3nc4ccccc4[nH]3)c2)c1,840
16,CC(C)CCn1c(Sc2ccc(C#N)c([N+](=O)[O-])c2)nnc1-c1ccc(Cl)cc1,875
17,Nc1cccc(-c2ccc3ccnc(N)c3c2)c1,796
18,CCc1nc(N)nc(N)c1-c1ccc(C(C)C)cc1,834
19,CCCNc1nc(Nc2ccccc2C)nc2ccccc12,887
20,CCOc1cc(Br)c(C(C)NC(=O)c2ccccc2)cc1OCC (stereo not drawn),861
21,CCOc1c(OC)ccc2c1CCN(CCN1CCC(CNC(=O)c3ccc(-c4ccc(C#N)cc4)cc3)CC1)C2,1080
22,FC(F)(F)c1ccc2[nH]ccc(=NN=Cc3ccccc3Cl)c2c1,799
23,COc1ccc(Cl)cc1NC(=O)Nc1ccc2c(c1)CCN(C1CCC1)CC2,814
24,C=CCc1cc(Br)ccc1OCCCON1C(N)=NC(N)=NC1(C)C,3.2
25,NCc1ccc(CNCc2cccc(-c3ccc(-c4nc5ccccc5[nH]4)cc3)c2)cc1,717

row,SMILES,XC50 [nM]
1,CCCC(=O)Nc1ccc(OCCN(Cc2ccccc2OC(F)(F)F)c2ccc(C(F)(F)F)c(C#N)c2)cc1,788
2,Cc1cccc(C(=O)NC(NC(=S)Nc2cc(Cl)ccc2Cl)C(Cl)(Cl)Cl)c1 (stereo not drawn),1270
3,COc1ccc2nc(N)nc(C)c2c1,927
4,Fc1cccc(Cn2ncc3cc(Nc4ncnc5sc(C#Cc6ncc[nH]6)cc45)ccc32)c1,1800
5,CN(C)c1ccc(-c2ccc(C(=O)NC3CCN(Cc4ccccc4F)CC3)s2)cc1,1400
6,Cc1cccn2c(=O)c3cc(C(=O)NC4CCCCC4)c(=N)n(CCCn4ccnc4)c3nc12,753
7,CCOC(=O)c1c(CNc2ccncc2)n(C)c2cc(Br)c(OC(C)=O)cc12,370
8,N#Cc1ccc(N[C@@H](CC2CCCCC2)C(=O)Nc2ccc(-c3ccccc3)cc2)c2ccccc12,597
9,O=C(NC1CCN(c2ncc(C(F)(F)F)cc2Cl)CC1)c1cccs1,897
10,Cc1c2ccc(N(C)c3ccnc(Nc4ccc5c(c4)nc(NC(C)C)n5C)n3)cc2nn1C,159
11,O=C(c1cccs1)N(Cc1cccc(-c2ccc(CNC3CCCC3)cc2)c1)C1CCN(Cc2ccccc2)CC1,1130
12,CC(=O)c1ccc(NC(=O)Nc2ccc(N(C)c3ccnc(NC4CC4)n3)cc2)cc1,805
13,CCN1CCC(N2CCC(n3c(C)nc4cc(C(F)(F)F)ccc43)CC2)CC1,1020
14,CC[C@H]1CN2CCc3cc(OC)c(OC)cc3[C@@H]2C[C@@H]1CC1=NCCc2c1[nH]c1ccc(OCc3ccccc3)cc21,772
15,O=C(CC1CCCC1)N(Cc1ccc(-c2ccc(CNC3Cc4ccccc4C3)cc2)cc1)CC1CCCCN1 (stereo not drawn),1060
16,O=C(NOCc1ccccc1)c1cc(Cl)ccc1O,1100
17,Cc1cc(N[C@@H](Cc2ccccc2)C(=O)NCCCOC(C)C)nc(NCCc2ccc(F)cc2)n1,934
18,COc1cc(NCC2(CNCc3cn(Cc4ccccc4)c4ccccc34)CCCCC2)nc2ccccc12,946
19,COc1ccc(C=NN=c2c3ccccc3[nH]c3ccccc23)c2ccccc12,1130
20,CC(C)NCc1cccc(-c2ccc(-c3nc4ccccc4[nH]3)cc2)c1,761
21,CN(C)CC1c2[nH]c3ccccc3c2CCN1C(=O)Nc1ccc(Cl)c(Cl)c1 (stereo not drawn),1210
22,O=C1CCCN1CCCNCc1ccc(-c2cccc(-c3nc4cc(F)ccc4[nH]3)c2)cc1,659
23,COc1cccc(C2CCN(CCN3CCC(CNC(=O)c4ccc(-c5ccc(C(F)(F)F)cc5)cc4)CC3)CC2)c1,886
24,Cc1cc(N[C@@H](C)C(=O)Nc2ccccc2)nc(NCCc2ccc(F)cc2)n1,1110
25,Cc1cccc(CN2CCCN(Cc3ccc(C(=O)Nc4ccc(C(C)(C)C)cc4)cc3)CC2)c1,727

row,SMILES,XC50 [nM]
1,Cc1cc2ccc(/C=C/C(=O)NC3CCC(CCN4CCc5ccc(C#N)cc5CC4)CC3)cc2[nH]1 (stereo not drawn),941
2,CC(C)(Oc1c(C2CCN(CCCCNC(=O)c3ccc(-c4ccc(C#N)cc4)cc3)CC2)ccc2c1CCCC2)C(N)=O,696
3,COc1ccccc1CC1CCCN(C2CCC(NC(=O)c3cc4ccccc4[nH]3)CC2)C1 (stereo not drawn),842
4,COc1cccc2c(NCc3ccccc3)nc(NCCCN3CCCCC3C)nc12 (stereo not drawn),911
5,CC(CCNc1c2ccccc2nc2ccccc12)N1CCN(C)CC1 (stereo not drawn),803
6,O=C(Cn1c(SCc2cccc(F)c2F)cc(=O)c2ccccc21)N(Cc1ccc(-c2ccc(C(F)(F)F)cc2)cc1)C1CCN(CCO)CC1,1250
7,Cc1noc(C)c1-c1cccc(CNCc2ccc(-c3cccc(-c4nc5cc(C(F)(F)F)ccc5[nH]4)c3)cc2)c1,556
8,COc1cccc2cc(C(=O)N[C@@H](CC(C)C)C(=O)NC3CC[C@@H](C)N(C(=O)Nc4ccncc4)CC3=O)oc12 (stereo partly drawn),292
9,CC1=NN(c2ccc(C)c(C)c2)C(=O)C1=NNc1cccc(-c2cccc(NC(=O)OC(C)(C)C)c2)c1O,695
10,NC(=O)c1cccc(C(=O)Nc2cccc(-c3cccc(-c4nc5cc(F)ccc5[nH]4)c3)c2)c1,249
11,O=C(Nc1ccc(C(F)(F)F)cc1)NC1CCN(CCCCCNC(=O)C2CC2c2ccc(Cl)c(Cl)c2)CC1 (stereo not drawn),626
12,COc1ccc2[nH]c(/C=C/c3cccc4ccc(C)nc34)nc2c1,792
13,CN1CCC(NCc2cccc(-c3ccc(S(=O)(=O)NCCN4CCCC4)s3)c2)CC1,928
14,COc1ccccc1-c1cccc(Nc2c(Nc3ccc(Cl)cc3)c(=O)c2=O)c1,878
15,c1ccc(CNc2cc(-c3ccccn3)nc(-c3ccccn3)n2)cc1,302
16,CC(C)CC(NC(=O)c1cccc(OCCN2CCOCC2)c1)C(=O)NC(/C=N/NC(=O)c1ccccc1)CCc1ccccc1 (stereo not drawn),251
17,CS(=O)(=O)n1c(CN2CCN(c3ncc(C(F)(F)F)cc3Cl)CC2)nc2ccccc21,1060
18,CNC(=O)NC1CCN(Cc2c(-c3cccs3)nc3ccccc3c2C(=O)N[C@@H](C)C2CCCCC2)CC1,219
19,COC(=O)C(NC(=O)c1ccc(-c2ccc(-c3nc4ccccc4[nH]3)s2)cc1)c1ccc(O)cc1 (stereo not drawn),738
20,Cc1ccccc1C1CCN(C2CCC(NC(=O)/C=C/c3ccc4c(c3)OC(F)(F)O4)CC2)CC1 (stereo not drawn),666
21,Cc1cccc2nc(-c3ccc(-c4ccc(NC(=O)CN5CCN(C)CC5)cc4)s3)[nH]c12,1020
22,Cc1ccc(C(=O)Nc2cccc(CN3CCCN(Cc4ccc(O)cc4)CC3)c2)s1,1000
23,Cc1nnc2c(NC(=O)NC3CCCC3)cc3ccc(-c4cccc(CN5CCN(C)CC5)c4)cc3n12,917
24,O=c1cc(NCCCNC2CCCc3c2ccc2ccccc32)[nH]c2ccccc12 (stereo not drawn),824
25,CN1CCc2cc(O)c(NS(=O)(=O)c3ccc(-c4ccc(Cl)cc4)cc3)cc2CC1,767

row,SMILES,XC50 [nM]
1,COc1ccc(CNC(=O)NC2CCN(c3ccnc(Nc4ccc(F)cc4)n3)C2)cc1 (stereo not drawn),842
2,CN(C)c1cc(NC(=O)Nc2ccc(SC(F)(F)F)cc2)c2ccccc2n1,140
3,Nc1nc(N)c2c(ccc3c2ccn3C2C=CCCC2)n1 (stereo not drawn),132
4,CO[C@H](C)[C@H](NC(=O)[C@H](CC(C)C)[C@H](CCC(F)(F)F)N(O)C=O)C(=O)Nc1nccs1,110
5,COc1ccc(CCNCC(O)c2cccc(Br)c2)c(Cl)c1OC (stereo not drawn),1040
6,CN1CCN(CCCN(Cc2cccc(-c3cccc(CNC4CCCC4)c3)c2)C(=O)/C=C/c2ccccc2)CC1,777
7,CCOc1cc(C(=O)NCCCN2CCCCC2C)ccc1-c1nc2cc(Cl)ccc2[nH]1 (stereo not drawn),1070
8,CC(C)(C)CNCC(C)(C)c1nc(-c2ccc(Cl)c(O)c2)c(-c2ccncc2)[nH]1,601
9,CC(O)C1CCCCN1C(=O)c1ccc(-c2ccc(-c3nc4cc(F)ccc4[nH]3)cc2)cc1 (stereo not drawn),435
10,CN(C)CCNCc1ccc(-c2ccc3c(Nc4ccc(F)cc4Cl)ccnc3c2)o1,145
11,Cc1ncccc1C(=O)Nc1cccc(-c2cccc(-c3nc4cccc(C)c4[nH]3)c2)c1,956
12,CCCCc1cc(NCc2ccncc2)nc(Nc2cccc(OC)c2)n1,742
13,COc1ccc2nccc(N3CCC(SCCNCc4ccc5c(n4)NC(=O)CS5)C3)c2n1 (stereo not drawn),253
14,NC(=O)c1cc2nc(Nc3ccc(F)cc3)nc(Nc3ccc(S(N)(=O)=O)cc3)c2[nH]1,795
15,CCCC(C)Nc1nc(C)cc(N[C@@H](CC(C)C)C(=O)NCc2ccc(C)cc2)n1 (stereo partly drawn),1010
16,CN(CCCN(C)c1cc(NC(=O)c2ccc(F)cc2)ccn1)Cc1cccc(F)c1,1220
17,CN(C)CCNc1ncnc2c1[nH]c1ccc(Br)cc12,742
18,COC(=O)C(Cc1ccccc1)NC(=O)NC1CCN(c2ccnc(Nc3ccc(F)cc3)n2)C1 (stereo not drawn),1090
19,N=C(N)NC(=O)Nc1cc(Cl)c(Cl)c(Br)c1,611
20,Fc1ccc(C=NN=c2cc[nH]c3ccc(C(F)(F)F)cc23)cc1,1100
21,CC(C)(CN)c1nc(-c2ccc(Cl)c(O)c2)c(-c2ccncc2)[nH]1,756
22,COc1ccc(-c2ccc(NC(=O)c3ccc(C#N)cc3)cc2)cc1CNC(C)C,529
23,C(=C(c1cccs1)c1cccs1)c1ccc(CNC2CCN(Cc3ccccc3)CC2)cc1,161
